Where two headings read alike, the source gives them in different places.
Assays:
[1] = tested on: benzodiazepine (BDZ)-binding sites; assay: Radioligand binding assay, [3H]flunitrazepam, rat cerebral cortex; conditions: compound 1 × 10^−6 M;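 also: low percentages indicate weak binding of the compound to the site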
[2] = tested on: maximal electroshock-induced seizures; assay: Maximal electroshock-induced seizure (MES) test in mice; type: in vivo, mouse; conditions: for p/t, number of animals protected against MES-induced seizures / number tested: 300 mg/kg i.p.; for ED50: Mus musculus, ip; for PI (TD50/ED50): protective index
In short: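 Mice given compound i.p. (300 mg/kg screen, then graded doses) 15, 30, 60 or 120 min before ear-clip electroshock (25 mA, 50 Hz, 0.2 s); tonic hind limb extension scored as seizure. ED50 (dose protecting 50% of animals) from Litchfield–Wilcoxon dose-response lines.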

[3] = sub-protective doses of the compound co-administered with valproate; cited from earlier work
[4] = tested on: GABAA receptors; assay: Radioligand binding assay, [3H]muscimol, rat cerebral cortex;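 as to Percent of Specific Binding, GABAA: low percentages indicate weak binding of the compound to the receptor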

In the case of Cc1ccc(-n2c(-c3cccc(Cl)c3)n[nH]c2=S)cc1 [Compound 10a, 5-(3-Chlorophenyl)-4-(4-methylphenyl)-2,4-dihydro-3H-1,2,4-triazole-3-thione], the “Percent of Specific Binding, BDZ” value [1] is reported as 9%, the “p/t, number of animals protected against MES-induced seizures / number tested” value ([2]; pretreatment time 15 min, mice) is reported as 8/8 and the “p/t, number of animals protected against MES-induced seizures / number tested” value ([2]; pretreatment time 30 min, mice) is reported as 8/8. For the same compound, the “p/t, number of animals protected against MES-induced seizures / number tested” value ([2]; pretreatment time 60 min, mice) was 8/8, the “p/t, number of animals protected against MES-induced seizures / number tested” value ([2]; pretreatment time 120 min, mice) was 6/8 and the ED50 ([2]; read-out: ED50 ± S.E. (MES test), i.p., pretreatment time 15 min, mice) was 57 ± 9.4 mg/kg. For the same compound, the ED50 ([2]; read-out: ED50 ± S.E. (MES test), i.p., pretreatment time 30 min, mice) was 74.5 ± 8.1 mg/kg, the ED50 ([2]; read-out: ED50 ± S.E. (MES test), i.p., pretreatment time 60 min, mice) was 187 ± 18.8 mg/kg and the ED50 ([2]; read-out: ED50 ± S.E. (MES test), i.p., pretreatment time 120 min, mice) was 281 ± 13.6 mg/kg. The “PI (TD50/ED50)” value ([2]; chimney TD50 / MES ED50, pretreatment time 15 min) was 5.9, the “PI (TD50/ED50)” value ([2]; chimney TD50 / MES ED50, pretreatment time 30 min) was 4.5 and the “PI (TD50/ED50)” value ([2]; chimney TD50 / MES ED50, pretreatment time 60 min) was 1.8. The “PI (TD50/ED50)” value ([2]; chimney TD50 / MES ED50, pretreatment time 120 min) was 1.4, the onset of action ([2]; significant protection as early as 15 min after parenteral administration, MES, mice) was “quick onset of action” and the “elevation of total brain concentration of valproate” value [3] was 52%. For the same compound, the “Percent of Specific Binding, GABAA” value ([4]; compound 1 × 10^−6 M, [3H]muscimol, rat cerebral cortex) was 2% and the “effect of added compound on affinity of GABA to GABAA receptors” value ([4]; radioligand binding, GABA in combination with compound) was “did not lead to an increase”.
